Measurements published in patent EP4793292A1, “POLYPEPTIDE DERIVATIVE, PHARMACEUTICAL COMPOSITION THEREOF AND USE THEREOF” (Biocells (Beijing) Biotech Co., Ltd., priority 2023, dated 2025).
Starred links: 1 amine or outer side, 2 acyl side, 3 side chain; linkers in the order of their positions; H or OH if unused. Non-standard residues stand in square brackets, D forms with d. Groups on a side chain read outwards from the residue. No end group written: not given here. *: point of attachment. C18 diacid = O=C(O)CCCCCCCCCCCCCCCCC(=O)*; γGlu = O=C(O)[C@H](CCC(=O)[*:2])N[*:1]; Palmitoyl = CCCCCCCCCCCCCCCC(=O)*; AEEA = NCCOCCOCC(=O)O

Test system: SH-SY5Y cells
Assay: Axonal growth of RA-differentiated SH-SY5Y cells on proteoglycan (ACAN) coating
Format: cell-based, human
Conditions: PW polypeptide 2.5 µM, 72 h, proteoglycan (ACAN)-coated plate, FIG. 1
Protocol: Therefore, RA-induced differentiated SH-SY5Y can be used to simulate neuronal axonal growth in vitro and to test the effects of PW polypeptides on axonal growth.
Preparation of culture medium for SH-SY5Y: 1) DMEM/F12 + 10% FBS + 1 × penicillin-streptomycin + 1 mM sodium pyruvate; 2) DMEM/F12 + 1% FBS + 1 × penicillin-streptomycin + 1 mM sodium pyruvate. Preparation of 50 mM retinoic acid stock solution: 15.02 mg of retinoic acid was weighed and dissolved in 1 mL of dimethyl sulfoxide (DMSO), aliquoted, and frozen at -80°C. Proteoglycan (ACAN/CSPG1) is a type of chondroitin sulfate proteoglycan (CSPG). Preparation of 1 mg/mL proteoglycan stock solution: 1 mg of ACAN solid was dissolved in 1 mL of distilled water, aliquoted, and frozen at -80°C. Preparation of PW polypeptide solution for cells (1 mM): the corresponding mass of polypeptide powder was weighed, dissolved in PBS and filtered through a 0.2 µm filter membrane, aliquoted, and frozen at -20°C.
The 1 mg/mL proteoglycan was diluted to 250 µg/mL with distilled water to coat a 24-well cell culture plate: each well was coated with 3 droplets of ACAN, 2 µL per droplet. Using the culture medium containing 10% FBS, SH-SY5Y cells were seeded in the proteoglycan-coated 24-well plate (20,000 cells/well) and incubated (37°C, 5% CO2) for 20 h. The medium was replaced with a culture medium containing 1% FBS, and PW polypeptide (2.5 µM) or an equal volume of PBS solution was added. After incubation for 72 h, the cells were fixed with 4% paraformaldehyde (room temperature, 30 min), and cell morphology was photographed and recorded using a 10× optical microscope. 20-30 cells were randomly selected under each field of view, and axonal length was measured using Image J-SNT.
Data analysis: All measured axonal lengths within each proteoglycan-coated range were averaged to serve as one data point. One-way analysis of variance and Tukey's test were used to compare the differences between groups. P<0.05 was considered as a significant difference.

Substance | promoting effect on axonal growth compared with PW6 | effect of promoting axonal growth compared with the scrambled polypeptide (Scr, negative control)
PW-95: polypeptide derivative, SEQ ID NO: 12 (GRKKRRQRRRCDMAEHTERLKAKDSLKLSQEYESI; not fully specified; MOD_RES 35: note = I at position 35 is amidated; LIPID 23: note = Lys side-chain linked to 2-(2-(2-amino ethoxy) ethoxy) acetic acid-2-(2-(2-amino ethoxy) ethoxy)acetic acid-gamma Glutamic acid-Octadecanedioic acid; SITE 6: note = D-arginine; SITE 2: note = D-arginine; SITE 8: n) | not significantly enhanced | 
NH2-GrKKRrQrRR-C-DMAEHTEALKANDSLcyclo(KLSQEYE)SI-NH2 [PW-239] | not significantly enhanced | significant effect of promoting axonal growth
PW-92: polypeptide derivative, SEQ ID NO: 10 (G[dR]KKR[dR]QRRRCDMAEHTERLK([AEEA-AEEA-γGlu-C18 diacid])ANDSLKLSQEYESI-NH2; not fully specified (residue 8)) | no significant difference | significant effect of promoting axonal growth
PW-96: polypeptide derivative, SEQ ID NO: 13 (GRKKRRQRRRDMAEHTERLKAKDSLKLSQEYESI; not fully specified; MOD_RES 34: note = I at position 34 is amidated; LIPID 22: note = Lys side-chain linked to 2-(2-(2-amino ethoxy) ethoxy) acetic acid-2-(2-(2-amino ethoxy) ethoxy)acetic acid-gamma Glutamic acid-Octadecanedioic acid; SITE 6: note = D-arginine; SITE 2: note = D-arginine; SITE 8: n) | not significantly enhanced | 
PW-253: polypeptide derivative, SEQ ID NO: 48 (G[dR]KKR[dR]Q[dR]RRDMAEHTERLK([AEEA-AEEA-γGlu-Palmitoyl])ANDSLKLSQEYESI-NH2; N-terminus assumed; SMILES CCCCCCCCCCCCCCCC(=O)N[C@@H](CCC(=O)NCCOCCOCC(=O)NCCOCCOCC(=O)NCCCC[C@H](NC(=O)[C@H](CC(C)C)NC(=O)[C@H](CCCNC(=N)N)NC(=O)[C@H](CCC(=O)O)NC(=O)[C@@H](NC(=O)[C@H](Cc1c[nH]cn1)NC(=O)[C@H](CCC(=O)O)NC(=O)[C@H](C)NC(=O)[C@H](CCSC)NC(=O)[C@H](CC(=O)O)NC(=O)[C@H](CCCNC(=N)N)NC(=O)[C@H](CCCNC(=N)N)NC(=O)[C@@H](CCCNC(=N)N)NC(=O)[C@H](CCC(N)=O)NC(=O)[C@@H](CCCNC(=N)N)NC(=O)[C@H](CCCNC(=N)N)NC(=O)[C@H](CCCCN)NC(=O)[C@H](CCCCN)NC(=O)[C@@H](CCCNC(=N)N)NC(=O)CN)[C@@H](C)O)C(=O)N[C@@H](C)C(=O)N[C@@H](CC(N)=O)C(=O)N[C@@H](CC(=O)O)C(=O)N[C@@H](CO)C(=O)N[C@@H](CC(C)C)C(=O)N[C@@H](CCCCN)C(=O)N[C@@H](CC(C)C)C(=O)N[C@@H](CO)C(=O)N[C@@H](CCC(N)=O)C(=O)N[C@@H](CCC(=O)O)C(=O)N[C@@H](Cc1ccc(O)cc1)C(=O)N[C@@H](CCC(=O)O)C(=O)N[C@@H](CO)C(=O)N[C@H](C(N)=O)[C@@H](C)CC)C(=O)O) | no significant difference | significant effect of promoting axonal growth
PW-252: polypeptide derivative, SEQ ID NO: 47 (G[dR]KKR[dR]Q[dR]RRCDMAEHTERLK([AEEA-AEEA-γGlu-Palmitoyl])ANDSLKLSQEYESI-NH2; N-terminus assumed; SMILES CCCCCCCCCCCCCCCC(=O)N[C@@H](CCC(=O)NCCOCCOCC(=O)NCCOCCOCC(=O)NCCCC[C@H](NC(=O)[C@H](CC(C)C)NC(=O)[C@H](CCCNC(=N)N)NC(=O)[C@H](CCC(=O)O)NC(=O)[C@@H](NC(=O)[C@H](Cc1c[nH]cn1)NC(=O)[C@H](CCC(=O)O)NC(=O)[C@H](C)NC(=O)[C@H](CCSC)NC(=O)[C@H](CC(=O)O)NC(=O)[C@H](CS)NC(=O)[C@H](CCCNC(=N)N)NC(=O)[C@H](CCCNC(=N)N)NC(=O)[C@@H](CCCNC(=N)N)NC(=O)[C@H](CCC(N)=O)NC(=O)[C@@H](CCCNC(=N)N)NC(=O)[C@H](CCCNC(=N)N)NC(=O)[C@H](CCCCN)NC(=O)[C@H](CCCCN)NC(=O)[C@@H](CCCNC(=N)N)NC(=O)CN)[C@@H](C)O)C(=O)N[C@@H](C)C(=O)N[C@@H](CC(N)=O)C(=O)N[C@@H](CC(=O)O)C(=O)N[C@@H](CO)C(=O)N[C@@H](CC(C)C)C(=O)N[C@@H](CCCCN)C(=O)N[C@@H](CC(C)C)C(=O)N[C@@H](CO)C(=O)N[C@@H](CCC(N)=O)C(=O)N[C@@H](CCC(=O)O)C(=O)N[C@@H](Cc1ccc(O)cc1)C(=O)N[C@@H](CCC(=O)O)C(=O)N[C@@H](CO)C(=O)N[C@H](C(N)=O)[C@@H](C)CC)C(=O)O) | no significant difference | significant effect of promoting axonal growth
PW-259: polypeptide derivative, SEQ ID NO: 50 (G[dR]KKR[dR]Q[dR]RRDMAEHTERLK([AEEA-γGlu-Palmitoyl])ANDSLKLSQEYESI-NH2; N-terminus assumed; SMILES CCCCCCCCCCCCCCCC(=O)N[C@@H](CCC(=O)NCCOCCOCC(=O)NCCCC[C@H](NC(=O)[C@H](CC(C)C)NC(=O)[C@H](CCCNC(=N)N)NC(=O)[C@H](CCC(=O)O)NC(=O)[C@@H](NC(=O)[C@H](Cc1c[nH]cn1)NC(=O)[C@H](CCC(=O)O)NC(=O)[C@H](C)NC(=O)[C@H](CCSC)NC(=O)[C@H](CC(=O)O)NC(=O)[C@H](CCCNC(=N)N)NC(=O)[C@H](CCCNC(=N)N)NC(=O)[C@@H](CCCNC(=N)N)NC(=O)[C@H](CCC(N)=O)NC(=O)[C@@H](CCCNC(=N)N)NC(=O)[C@H](CCCNC(=N)N)NC(=O)[C@H](CCCCN)NC(=O)[C@H](CCCCN)NC(=O)[C@@H](CCCNC(=N)N)NC(=O)CN)[C@@H](C)O)C(=O)N[C@@H](C)C(=O)N[C@@H](CC(N)=O)C(=O)N[C@@H](CC(=O)O)C(=O)N[C@@H](CO)C(=O)N[C@@H](CC(C)C)C(=O)N[C@@H](CCCCN)C(=O)N[C@@H](CC(C)C)C(=O)N[C@@H](CO)C(=O)N[C@@H](CCC(N)=O)C(=O)N[C@@H](CCC(=O)O)C(=O)N[C@@H](Cc1ccc(O)cc1)C(=O)N[C@@H](CCC(=O)O)C(=O)N[C@@H](CO)C(=O)N[C@H](C(N)=O)[C@@H](C)CC)C(=O)O) | no significant difference | significant effect of promoting axonal growth
